Test results: article PMC4501687, “Design of a Selective Substrate and Activity Based Probe for Human Neutrophil Serine Protease 4” (PLoS ONE, 2015)

Tests used:
NSP4 [1] = biological target: T1, NSP4 (Homo sapiens, UniProt Q6UWY2); test: SDS-PAGE / streptavidin blot labeling of purified NSP4 by probe; type: binding; conditions: 100 nM NSP4, 20 min 37°C; SDS-PAGE, nitrocellulose transfer, fluorescent streptavidin; probe tested 1–2000 nM
T1 construct: made in house
T1 sequence (Q6UWY2 32-283): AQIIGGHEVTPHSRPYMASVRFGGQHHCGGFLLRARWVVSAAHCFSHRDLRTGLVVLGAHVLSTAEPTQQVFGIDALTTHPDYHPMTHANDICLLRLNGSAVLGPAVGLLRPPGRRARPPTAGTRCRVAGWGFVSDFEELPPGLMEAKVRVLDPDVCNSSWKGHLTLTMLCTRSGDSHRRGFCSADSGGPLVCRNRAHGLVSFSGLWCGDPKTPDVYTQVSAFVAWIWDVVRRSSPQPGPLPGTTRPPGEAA
Description: 100nM of NSP4 was incubated with competing inhibitor—Ac-IVPR-CMK for 30 minutes at 37°C and then treated with different concentrations of probe—PK401 (2000nM and 1000nM) for 20 minutes at 37°C. Separately, 100nM of NSP4 was incubated with five different concentrations of probe- 2000nM, 1000nM, 100nM, 10nM, and 1 nM for 20 minutes in 37°C. As a control 100nM PK401 was incubated with assay buffer.
(§1) Samples were denatured and run in 4–12% SDS PAGE following transfer to nitrocellulose membrane. The membrane was blocked with 1.5% BSA in TBST overnight at 4°C and treated with IRDye800CW Streptavidin (dilution 1:10000 with 1.5% BSA in TBST) for 45 minutes. Then enzyme was visualized using a Li-cor fluorescence imager and Odyssey Molecular Modeling Software.
(§2) SDS-page and Western Blot […]
A standard SDS broad spectrum marker (Biorad) was used (Fig. 4A, lane 1). […]
(§3) minutes in 37° C (Fig. 4, lanes 4, 5, 6, 7, 8). […] Then enzyme was visualized using a Li-cor fluorescence imager and Odyssey Molecular Modeling Software. […]
(§4) The membrane was blocked with 1.5% BSA in TBST overnight at 4° C and treated with IRDye800CW Streptavidin (dilution 1:10000 with 1,5% BSA in TBST) for 45 minutes. Then PK401 was visualized using a Li-cor fluorescence imager and Odyssey Molecular Modeling Software.

NE = biological target: T2, NE (Homo sapiens, UniProt P08246); test: SDS-PAGE / streptavidin blot labeling of NE by probe; type: binding; conditions: 100 nM active enzyme, 100 nM PK401; streptavidin blot (Fig 4B)
T2 construct: purchased Biocentrum, Krakow, Poland
T2 sequence (P08246 30-267): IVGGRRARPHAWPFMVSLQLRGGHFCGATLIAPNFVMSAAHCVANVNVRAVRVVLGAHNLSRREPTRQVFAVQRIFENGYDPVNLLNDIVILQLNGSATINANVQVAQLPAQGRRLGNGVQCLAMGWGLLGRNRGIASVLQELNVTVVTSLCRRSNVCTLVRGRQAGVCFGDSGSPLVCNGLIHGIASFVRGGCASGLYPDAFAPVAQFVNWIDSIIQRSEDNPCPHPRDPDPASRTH
Description: as §1
(§5) The same methodology was used to visualize potential cross-reactivity of NSP’s with PK401. 100nM of each NSP was incubated with buffer or 100nM PK401, followed by SDS-page and transfer to nitrocellulose membrane. For more details see S1 Text.
as §2
(§6) A standard SDS broad spectrum marker (Biorad) was used (Fig. 4A, lane 1).
(§7) Two Eppendorf tubes with 100nM of NSP4 were incubated with Ac-IVPR-CMK for 30 minutes at 37°C and then treated with PK401 at 2000nM and 1000nM for an additional 20 minutes at 37° C (Fig. 4, lanes 2 and 3). Separately, 100nM enzyme […]
as §3, §4

CatG [2] = biological target: T3, CatG (Homo sapiens, UniProt P08311); test: SDS-PAGE / streptavidin blot labeling of CatG by probe; type: binding; conditions: 100 nM active enzyme, 100 nM PK401; streptavidin blot (Fig 4B)
T3 construct: purchased Biocentrum, Krakow, Poland
T3 sequence (P08311 21-255): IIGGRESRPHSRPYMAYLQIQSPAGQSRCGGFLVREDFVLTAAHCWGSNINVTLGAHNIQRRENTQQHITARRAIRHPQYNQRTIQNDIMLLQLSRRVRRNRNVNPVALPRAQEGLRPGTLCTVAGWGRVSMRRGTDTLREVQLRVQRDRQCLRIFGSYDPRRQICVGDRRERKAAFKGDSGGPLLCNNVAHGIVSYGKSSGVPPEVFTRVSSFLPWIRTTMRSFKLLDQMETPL
Description: as §1, §5, §2, §6, §7, §3, §4

CatG [3] = biological target: T3, CatG; test: Inhibition rate constant (kobs/I), pseudo-first order, CatG; type: biochemical; conditions: selectivity NSP4 over CatG
Description: (§8) The active concentration of each NSP was determined by PK401 titration in 50 mM Hepes, 0.1 M NaCl, 0.1%TRITON-X100, pH 7.45 assay buffer on 96 wells Corning plates. Rfu/s values were measured for minimum 20 minutes. The excitation wavelength was 355 nm, and the emission wavelength was 460 nm, with a cutoff of 455 nm. Under pseudo-first order conditions, a fixed amount of NSP4 (2.8 nM active enzyme), PR3, NE, or CatG (100 nM active enzyme) was mixed with PK401 at different concentration ranges starting from at least 2-fold excess over NSP4 (6.6–20nM) and 7-fold excess over NE, CatG and PR3 (0.7–50μM). […] Product formation (P) proceeded at an initial velocity (V) and was inhibited over time (t) at a rate of (k a): P = V/ka*(1-e^-ka^*t)+C, where k o is defined as k obs(app) −the apparent rate of inhibition in the presence of substrate. k obs was determined separately for each probe concentration using non-linear regression analysis in GraphPadPrism software. The obtained values were plotted against probe concentration giving k obs(app)/I (apparent second order rate constant). kobs/I (absolute value of the second order rate constant) was then calculated from kobs/I = ka/I *(1+[S]/Km). […]

NSP4 [4] = biological target: T1, NSP4; test: Inhibition rate constant (kobs/I), pseudo-first order, NSP4; type: biochemical
Description: as §8

CatG [5] = biological target: T3, CatG; test: Fluorogenic substrate hydrolysis kinetics with CatG; type: biochemical; conditions: Table 3; assay substrate for CatG; Km above 100 μM, the concentration used in the assay; read-out: Km of the substrate used for analysis
Description: Kinetic parameters of selected substrates were determined in 50 mM Hepes, 0.1 M NaCl, 0.1%TRITON-X100, pH 7.45 assay buffer on 96 wells Corning plates. Measurements were performed for a minimum of 20 minutes. The excitation wavelength was 355 nm, and the emission wavelength was 460 nm, with a cutoff of 455 nm. Human NE and CatG were purchased from Biocentrum, Krakow, Poland and PR3 from Athens Research Technology, Athens, Georgia, USA. Recombinant human NSP4 was expressed and purified as previously described.
In addition to NSP4, neutrophils contain three other structurally-related serine proteases NE, PR3 and CatG [1] that are also stored in azurophilic granules. To estimate the degree of eventual cross reactivity of the optimal substrate with these three serine proteases, we measured kinetic parameters for each enzyme on PK421. […] In the case of CatG we were unable to saturate the enzyme and therefore could not calculate the individual values of kcat and Km.

Substance | Probe concentration giving robust labeling of NSP4 (NSP4 [1]) | Labeling of NE by probe (NE) | Labeling of CatG by probe (CatG [2]) | Inhibition of CatG relative to NSP4 (kobs/I) (CatG [3]) | kobs/I (second order rate constant of inhibition) (NSP4 [4]; NSP4 2.8 nM active enzyme, probe 6.6–20 nM, substrate Ac-hCha-Phe(guan)-Pro-Arg-ACC above Km, 37°C, Hepes buffer pH 7.45, corrected by 1+[S]/Km) | Fold higher kobs/I than PK401b (NSP4 [4]; NSP4, diastereoisomers compared) | Km (CatG [5])
Biot-Ahx-hCha-Phe(guan)-Oic-Arg^P(OPh)2 [PK401] | 10 nM | only trace amounts of labeling | only trace amounts of labeling | three orders of magnitude slower | 3.8e+06 M⁻¹ s⁻¹ | 40 times | 
Suc-Ala-Ala-Pro-Phe-AMC [assay substrate for CatG] |  |  |  |  |  |  | > 100 µM
